In the supplement of paper PMC10307832:

Experiments:
Experiment in all cases: relative viability (nuclei count vs DMSO), 5 days (fraction); higher = more cells survive
BX 795 + Bortezomib = compound: O=C(NCCCNc1nc(Nc2cccc(NC(=O)N3CCCC3)c2)ncc1I)c1cccs1 [BX 795] + CC(C)C[C@H](NC(=O)[C@H](Cc1ccccc1)NC(=O)c1cnccn1)B(O)O [Bortezomib] (partner 0.002 µM)
Procedure, shortened: (§1)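 After 5 days of treatment, lung cancer cells in 1536-well plates were fixed and stained in a single step (final 0.05% Triton X-100, 1% formaldehyde, 1 ug/ml Hoechst) and their nuclei counted on 4× images. Treatment had been applied by pin tool the day after seeding as one drug alone or as a fixed anchor-drug dose with five library-drug doses (not always all listed) in √10 steps. Relative viability is the nuclei count of treated wells divided by that of vehicle wells, and values are medians of duplicate plates.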

BX 795 + Navitoclax = compound: O=C(NCCCNc1nc(Nc2cccc(NC(=O)N3CCCC3)c2)ncc1I)c1cccs1 [BX 795] + CC1(C)CCC(c2ccc(Cl)cc2)=C(CN2CCN(c3ccc(C(=O)NS(=O)(=O)c4ccc(N[C@H](CCN5CCOCC5)CSc5ccccc5)c(S(=O)(=O)C(F)(F)F)c4)cc3)CC2)C1 [Navitoclax] (partner 0.5 µM)
Procedure, shortened: as §1

BX 795 + Pictilisib = compound: O=C(NCCCNc1nc(Nc2cccc(NC(=O)N3CCCC3)c2)ncc1I)c1cccs1 [BX 795] + CS(=O)(=O)N1CCN(Cc2cc3nc(-c4cccc5[nH]ncc45)nc(N4CCOCC4)c3s2)CC1 [Pictilisib] (partner 1 µM)
Procedure, shortened: as §1

BX 795 + Crizotinib = compound: O=C(NCCCNc1nc(Nc2cccc(NC(=O)N3CCCC3)c2)ncc1I)c1cccs1 [BX 795] + C[C@@H](Oc1cc(-c2cnn(C3CCNCC3)c2)cnc1N)c1c(Cl)ccc(F)c1Cl [Crizotinib] (partner 1 µM)
Procedure, shortened: as §1

BX 795 + Decitabine = compound: O=C(NCCCNc1nc(Nc2cccc(NC(=O)N3CCCC3)c2)ncc1I)c1cccs1 [BX 795] + Nc1ncn([C@H]2C[C@H](O)[C@@H](CO)O2)c(=O)n1 [Decitabine] (partner 2 µM)
Procedure, shortened: as §1

| Cell Line | relative viability (BX 795 + Bortezomib; first compound 0.04 µM) | relative viability (BX 795 + Bortezomib; first compound 0.1265 µM) | relative viability (BX 795 + Bortezomib; first compound 0.4 µM) | relative viability (BX 795 + Bortezomib; first compound 1.265 µM) | relative viability (BX 795 + Navitoclax; first compound 0.04 µM) | relative viability (BX 795 + Navitoclax; first compound 0.1265 µM) | relative viability (BX 795 + Navitoclax; first compound 0.4 µM) | relative viability (BX 795 + Navitoclax; first compound 1.265 µM) | relative viability (BX 795 + Pictilisib; first compound 0.04 µM) | relative viability (BX 795 + Pictilisib; first compound 0.1265 µM) | relative viability (BX 795 + Pictilisib; first compound 0.4 µM) | relative viability (BX 795 + Pictilisib; first compound 1.265 µM) | relative viability (BX 795 + Crizotinib; first compound 0.04 µM) | relative viability (BX 795 + Crizotinib; first compound 0.1265 µM) | relative viability (BX 795 + Crizotinib; first compound 0.4 µM) | relative viability (BX 795 + Crizotinib; first compound 1.265 µM) | relative viability (BX 795 + Decitabine; first compound 0.04 µM) | relative viability (BX 795 + Decitabine; first compound 0.4 µM) | relative viability (BX 795 + Decitabine; first compound 1.265 µM) | relative viability (BX 795 + Decitabine; first compound 0.1265 µM) |
| --- | --- | --- | --- | --- | --- | --- | --- | --- | --- | --- | --- | --- | --- | --- | --- | --- | --- | --- | --- | --- |
| PC-3 [JPC-3] | 0.768 | 0.822 | 0.86 | 0.861 | 0.864 | 0.838 | 0.905 | 0.75 | 0.753 | 0.707 | 0.685 | 0.827 | 1.04 | 0.993 | 1.06 | 0.946 | 0.834 | 0.907 | 0.725 | – |
| LCLC-97TM1 | 0.563 | 0.527 | 0.954 | 0.417 | 0.398 | 0.45 | 0.529 | 0.432 | 0.186 | 0.163 | 0.206 | 0.137 | 0.475 | 0.431 | 0.306 | 0.209 | 0.268 | 0.367 | 0.227 | 0.264 |
| NCI-H1793 | – | – | – | – | 0.575 | 0.362 | 0.39 | 0.272 | 0.399 | 0.333 | 0.333 | 0.257 | – | – | – | – | 0.589 | 0.674 | 0.374 | 0.443 |
| HCC-15 | 0.969 | 1.02 | 0.99 | 0.778 | 0.751 | 0.7 | 0.756 | 0.53 | 0.71 | 0.779 | 0.968 | 0.744 | 0.784 | 0.883 | 0.743 | 0.461 | 0.585 | 0.684 | 0.448 | 0.646 |
| SK-LU-1 | 0.902 | 1.12 | – | 0.708 | 0.702 | 0.915 | 0.553 | 0.724 | 0.543 | 0.691 | 0.416 | 0.511 | 0.96 | 0.92 | 0.459 | 0.498 | 0.676 | 0.505 | 0.601 | 0.679 |
| NCI-H358 | – | – | – | – | – | – | – | – | 0.387 | 0.251 | 0.327 | 0.245 | 0.652 | 0.38 | 0.367 | 0.17 | 0.351 | 0.339 | 0.183 | 0.236 |
| NCI-H1975 | 0.332 | 0.414 | 0.392 | 0.249 | 1.19 | 1.24 | 1.16 | 0.985 | 0.3 | 0.328 | 0.26 | 0.224 | 0.99 | 1.04 | 0.879 | 0.643 | 0.434 | 0.35 | 0.359 | 0.472 |
